The results in this text go back to ChEMBL document CHEMBL1150657, “Assessment of the antiprotozoal activity of Galphimia glauca and the isolation of new nor-secofriedelanes and nor-friedelanes” (J Nat Prod, 2002).

Structures are written as SMILES. Where only a bound is given, the exact number is not on record here.

Assay [1] deals with KB. The assay can be described thus: Cytotoxicity against human KB cells. The format is cell-based.
Assay [2] concerns Trypanosoma brucei brucei. Kind of assay: Antitrypanosomal activity against Trypanosoma brucei brucei S427 blood stream trypomastigotes. The assay is classed as functional, organism-based.
Assay [3] deals with Leishmania donovani. Kind of assay: Antileishmanial activity against Leishmania donovani (MHOM/ET/67/L82) promastigotes. The format is functional, organism-based.
The subject of assay [4] is Plasmodium falciparum. The assay can be described thus: Antiprotozoal activity against Plasmodium falciparum K1. The format is functional, organism-based.

The term IC50 denotes the concentration needed to halve the response being measured.

In turn, `CCN(CC)CCCC(C)Nc1ccnc2cc(Cl)ccc12` (stereo not drawn) [CHLOROQUINE] showed an IC50 in assay [1] of 51.4 µg/mL.

For `C=C1C[C@H](C(=O)OC)[C@]2(C)CC[C@]3(C)[C@H]4[C@H](O)[C@@H](O)[C@]5(COC(C)=O)[C@@H](C)[C@@H](OC(C)=O)CC[C@H]5[C@]4(C)CC[C@@]3(O)[C@]2(O)C1` [GALPHIMIDIN], the IC50 in assay [2], in assay [3], in assay [4] and in assay [1] was more than 100 µM throughout.

For the compound `C=C1CC[C@]2(C)CC[C@]3(C)[C@H]4[C@H](OC(C)=O)C[C@]5(COC(C)=O)[C@@H](C)OC(=O)[C@H]6O[C@H]6[C@H]5[C@]4(C)CC[C@@]3(C(=O)OC)[C@]2(O)C1` [GALPHIN A], the IC50 in assay [2], in assay [3], in assay [4] and in assay [1] was more than 100 µM each time.

`C=C1C[C@@H](OC(C)=O)[C@]2(C)CC[C@]3(C)[C@H]4[C@H](OC(C)=O)C[C@]5(COC(C)=O)[C@@H](C)OC(=O)[C@H]6O[C@H]6[C@H]5[C@]4(C)CC[C@@]3(C(=O)OC)[C@]2(O)C1` [GALPHIN B]: the IC50 in assay [2], in assay [3], in assay [4] and in assay [1] was more than 100 µM each time.

For the compound `C=C1C[C@@H](OC(C)=O)[C@]2(C)CC[C@]3(C)[C@H]4[C@H](OC(C)=O)C[C@]5(COC(C)=O)[C@@H](C)OC(=O)[C@H]6O[C@H]6[C@H]5[C@]4(C)C[C@H](OC(C)=O)[C@@]3(C(=O)OC)[C@]2(O)C1` [GALPHIN C], the IC50 in assay [2], in assay [3], in assay [4] and in assay [1] was more than 100 µM in each case.

As to `N=C(N)c1ccc(OCCCCCOc2ccc(C(=N)N)cc2)cc1` [PENTAMIDINE], the IC50 in assay [2] was 0.0006 µg/mL; in assay [3], 0.24 µg/mL; in assay [1], 0.11 µg/mL.

`COc1cc([C@@H]2c3cc4c(cc3[C@H](O)[C@H]3COC(=O)[C@H]23)OCO4)cc(OC)c1OC` [PODOFILOX] came in with an IC50 in assay [1] of 0.00621 µg/mL.

`O=c1c(O)c(-c2ccc(O)c(O)c2)oc2cc(O)cc(O)c12` [QUERCETIN]: the IC50 in assay [2] was determined as 4.5 µg/mL; in assay [3] it was 29.5 µg/mL; in assay [4] it was 6.5 µg/mL; in assay [1], 136 µg/mL.

Consider `CC[C@H](/C=C/[C@@H](C)[C@H]1CC[C@H]2[C@@H]3CC=C4C[C@@H](O[C@@H]5O[C@H](CO)[C@@H](O)[C@H](O)[C@H]5O)CC[C@]4(C)[C@H]3CC[C@]12C)C(C)C` [STIGMASTEROL GLUCOSIDE], for which the IC50 in assay [2], in assay [3], in assay [4] and in assay [1] was more than 100 µM each time.

On to `CC[C@H](/C=C/[C@@H](C)[C@H]1CC[C@H]2[C@@H]3CC=C4C[C@@H](O)CC[C@]4(C)[C@H]3CC[C@]12C)C(C)C` [STIGMASTEROL], for which the IC50 in assay [2], in assay [3], in assay [4] and in assay [1] was more than 100 µM in each case.
